Measurements reported in PubChem BioAssay (NCI).
Several values for one entry are separate records, joined by “and”; a condition that tells them apart may be missing. Identical values can stand only once.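 Values below derive from 48-hour exposures of cells grown in 96-well plates, with endpoints linearly interpolated between the two concentrations bracketing the appropriate inhibition level. GI50: concentration for 50% inhibition of growth. TGI: total growth inhibition.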

Tests used:
Test in all cases: NCI anticancer screen, dose series, 48 h
RPMI-8226 leukemia = tested on: RPMI-8226 leukemia
LOX IMVI melanoma = tested on: LOX IMVI melanoma
SK-MEL-5 melanoma = tested on: SK-MEL-5 melanoma
CAKI-1 renal = tested on: CAKI-1 renal
SF-295 CNS = tested on: SF-295 CNS
OVCAR-5 ovarian = tested on: OVCAR-5 ovarian
MALME-3M melanoma = tested on: MALME-3M melanoma
NCI-H23 lung = tested on: NCI-H23 lung
HCT-15 colon = tested on: HCT-15 colon
NCI/ADR-RES ovarian = tested on: NCI/ADR-RES ovarian

SMILES	TGI (RPMI-8226 leukemia)	TGI (LOX IMVI melanoma)	TGI (SK-MEL-5 melanoma)	TGI (CAKI-1 renal)	TGI (SF-295 CNS)	TGI (OVCAR-5 ovarian)	TGI (MALME-3M melanoma)	TGI (NCI-H23 lung)	TGI (HCT-15 colon)	TGI (NCI/ADR-RES ovarian)	GI50 (RPMI-8226 leukemia)	GI50 (LOX IMVI melanoma)	GI50 (SK-MEL-5 melanoma)	GI50 (CAKI-1 renal)	GI50 (SF-295 CNS)	GI50 (OVCAR-5 ovarian)	GI50 (MALME-3M melanoma)	GI50 (NCI-H23 lung)	GI50 (HCT-15 colon)	GI50 (NCI/ADR-RES ovarian)
COc1ccc(C2CC(c3c(O)ccc4ccccc34)=NN2c2ccc([N+](=O)[O-])cc2[N+](=O)[O-])cc1OC (stereo not given)	15.8 µM	> 100 µM	30.2 µM	69.1 µM	> 87.1 µM	> 90.6 µM	56.4 µM	> 85.4 µM	> 100 µM	17.4 µM	–	–	–	–	–	–	–	–	–	–
COc1ccc2[nH]c(O)c(/C=c3/cc4c(c(-c5cc(OC)c(OC)c(OC)c5)n3)=Nc3ccccc3-4)c2c1	11.5 µM	> 100 µM	77.8 µM	> 100 µM	> 100 µM	> 100 µM	> 100 µM	> 100 µM	> 100 µM	> 100 µM	1.89 µM	7.54 µM	2.47 µM	> 100 µM	8.97 µM	> 100 µM	63.6 µM	5.28 µM	5.3 µM	3.3 µM
CCOP(=O)(OCC)/C(C#N)=C/c1cnc(-c2ccccc2)[nH]1	> 100 µM	> 100 µM	> 100 µM	> 100 µM	> 100 µM	> 100 µM	> 100 µM	> 100 µM	> 100 µM	> 100 µM	–	–	–	–	–	–	–	–	–	–
CC(C)(C)c1ccc2c(c1)CNCCNCc1cc(C(C)(C)C)ccc1OCC1(CO2)COc2ccc(C(C)(C)C)cc2CNCCNCc2cc(C(C)(C)C)ccc2OC1	4.2 µM	> 100 µM	3.37 µM	2.74 µM	1.97 µM	3.06 µM	2.8 µM	2.59 µM	2.17 µM	3.07 µM	–	–	–	–	–	–	–	–	–	–
C=C(C)C12CC(COC(=O)c3ccccc3)C34OC5(OC1C3C1OC1(CO)C(O)C1(O)C(OC(=O)c3ccccc3)C(C)C(C(C)CCCCCCC5O)C14)O2 (stereo not given)	> 75.8 µM	> 100 µM	> 100 µM	> 100 µM	> 100 µM	> 100 µM	> 100 µM	> 100 µM	> 100 µM	> 100 µM	–	–	–	–	–	–	–	–	–	–
Cc1ccc([C@@H]2[C@@H](C(=O)c3ccccn3)[C@H](c3ccc(C)cc3)C[C@](O)(c3ccccn3)[C@H]2C(=O)c2ccccn2)cc1	> 92.6 µM	> 100 µM	> 100 µM	> 100 µM	> 100 µM	> 85.8 µM	> 100 µM	> 100 µM	> 100 µM	> 100 µM	–	–	–	–	–	–	–	–	–	–
COc1cc(O)c(/C=N/N=C(\N)NO)c(OC)c1	> 10 µM	> 10 µM	> 10 µM	> 10 µM	> 10 µM	> 10 µM	> 10 µM	> 10 µM	> 10 µM	> 10 µM	–	–	–	–	–	–	–	–	–	–
O=C(CCCCCCCCC(=O)NN1C(=O)/C(=C\c2ccc(O)c(O)c2)SC1c1ccc(Cl)cc1)NN1C(=O)/C(=C\c2ccc(O)c(O)c2)SC1c1ccc(Cl)cc1 (stereo not given)	> 31.6 µM	57.6 µM	> 100 µM	> 88.1 µM	48.1 µM	> 100 µM	> 100 µM	41.8 µM	> 100 µM	> 100 µM	–	–	–	–	–	–	–	–	–	–
OCCCCCNc1c2ccccc2nc2ccccc12	33.2 µM	4.7 µM	3.95 µM	8.31 µM	10.5 µM	10.2 µM	4.15 µM	5.47 µM	13.9 µM	> 57.2 µM	–	–	–	–	–	–	–	–	–	–
S=C(N/N=C\C=N/NC(=S)N1CCCCC1)N1CCCCC1	> 100 µM	> 100 µM	> 32.4 µM	> 100 µM	> 77.8 µM	> 100 µM	> 35 µM	> 40.1 µM	> 100 µM	> 22.3 µM	–	–	–	–	–	–	–	–	–	–
CN1C(=O)C2C(=O)N(Cc3ccccc3)CC(=O)N2c2cccnc21 (stereo not given)	> 100 µM	> 100 µM	> 100 µM	> 100 µM	> 100 µM	> 100 µM	> 100 µM	> 100 µM	> 100 µM	> 100 µM	–	–	–	–	–	–	–	–	–	–
Brc1ccc(CCNCCN2CCCCC2)cc1	> 100 µM	27.6 µM	20.6 µM	29.2 µM	32.3 µM	36.2 µM	31.7 µM	37 µM	33.6 µM	59.5 µM	–	–	–	–	–	–	–	–	–	–
O=C(Nc1ccc(Br)cc1)c1c(-c2ccccc2)c2ccc(O)cc2oc1=O	> 10 µM	> 10 µM	> 10 µM	> 10 µM	> 10 µM	> 10 µM	> 10 µM	> 10 µM	> 10 µM	> 10 µM	–	–	–	–	–	–	–	–	–	–
CN(CCC#N)c1ccc(/C=C2\SC(=S)NC2=O)cc1	> 100 µM	36.2 µM	> 100 µM	> 100 µM	> 100 µM	> 100 µM	> 100 µM	> 100 µM	> 100 µM	> 100 µM	–	–	–	–	–	–	–	–	–	–
COCOC1/C=C/CCCC#C[C@H](C)C(=O)CC1 (stereo not given in full)	7.63 µM	11.5 µM	21.7 µM	24.7 µM	31.7 µM	20.1 µM	19.4 µM	19.4 µM	24 µM	29 µM	–	–	–	–	–	–	–	–	–	–
CC(=O)OCC1OC(OC(C)(C)CC/C=C(\C)[C@@H]2C/C=C(\C)CC/C=C(\C)CC2)C(O)C(O)C1OC(C)=O (stereo not given in full)	70.6 µM and > 100 µM	33.5 µM and 54.1 µM	> 83.7 µM and 34.6 µM	> 100 µM and 35.3 µM	> 100 µM and 42.4 µM	> 100 µM and 34.1 µM	56.4 µM and 34.5 µM	> 100 µM and 25.3 µM	> 100 µM and 29.2 µM	> 100 µM and 38.7 µM	–	–	–	58.6 µM and 18.7 µM	–	> 100 µM and 16.6 µM	–	46.2 µM and 12.7 µM	49.4 µM and 14.2 µM	45.8 µM and 19.5 µM
